Measurements as given in patent publication US20240317721A1, “PYRAZOLYL DERIVATIVES AS INHIBITORS OF THE KRAS MUTANT PROTEIN” (NOVARTIS AG, priority 2021, published 2024).

target: KRasG12C (M1-K169, biotinylated on the N-terminus) (Homo sapiens (Human), UniProt P01116, G12C); assay: Covalent competition assay: scintillation proximity assay (SPA) quantifying covalent modification of KRASG12C; format: binding; settings: competition with radiolabeled covalent probe (Compound B/Compound A), 2 hours incubation, 10 nM KRasG12C
Outline: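 Test compounds compete with a radiolabeled covalent probe for modification of N-terminally biotinylated KRasG12C(M1-K169):GDP, final 10 nM protein, 25 nM radio-ligand, 475 nM unlabelled ligand, 2 h with agitation in 20 mM Tris-HCl pH 7.5, 150 mM NaCl, 0.1 mM MgCl2, 0.01% Tween-20.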

SMILES	IC50 [nM]
C=CC(=O)N1CC2(CC(n3nc(N4CCn5nccc5C4C)c(-c4c(Cl)c(C)cc5[nH]ncc45)c3C)C2)C1 (single isomer, unassigned) [Example 41a, 1-(6-(4-(5-chloro-6-methyl-1H-indazol-4-yl)-5-methyl-3-(4-methyl-6,7-dihydropyrazolo[1,5-a]pyrazin-5(4H)-yl)-1H-pyrazol-1-yl)-2-azaspiro[3.3]heptan-2-yl)prop-2-en-1-one]	41900
C=CC(=O)N1CC2(CC(n3nc(N4CCN(C(C)=O)CC4(C)C)c(-c4c(Cl)c(C)cc5[nH]ncc45)c3C3CC3)C2)C1 (single isomer, unassigned) [Example 24b, 1-(6-(3-(4-acetyl-2,2-dimethylpiperazin-1-yl)-4-(5-chloro-6-methyl-1H-indazol-4-yl)-5-cyclopropyl-1H-pyrazol-1-yl)-2-azaspiro[3.3]heptan-2-yl)prop-2-en-1-one]	167
C=CC(=O)N1CC2(CC(n3nc(N4CCN(C5CCOCC5)C[C@@]4(CC)C(F)F)c(-c4c(Cl)c(C)cc5[nH]ncc45)c3C)C2)C1 (single isomer, unassigned) [Example 156b]	8
C=CC(=O)N1CC2(CC(n3nc(N4CCC(N5CCOCC5)CC45CCC5)c(-c4c(Cl)c(C)cc5[nH]ncc45)c3C)C2)C1 (single isomer, unassigned) [Example 63a, 1-(6-(4-(5-chloro-6-methyl-1H-indazol-4-yl)-5-methyl-3-(8-morpholino-5-azaspiro[3.5]nonan-5-yl)-1H-pyrazol-1-yl)-2-azaspiro[3.3]heptan-2-yl)prop-2-en-1-one]	10
C=CC(=O)N1CC2(CC(n3nc(N4CCN(C5CCCOC5)C[C@]4(C)CC)c(-c4c(Cl)c(C)cc5[nH]ncc45)c3C)C2)C1 (single isomer, unassigned) [Example 157c]	6
C=CC(=O)N1CC2(CC(n3nc(N4CCC(N(CC)C5COC5)CC4(C)C)c(-c4c(Cl)c(C)cc5[nH]ncc45)c3C)C2)C1 (single isomer, unassigned) [Example 48b, 1-(6-(4-(5-chloro-6-methyl-1H-indazol-4-yl)-3-(4-(ethyl(oxetan-3-yl)amino)-2,2-dimethylpiperidin-1-yl)-5-methyl-1H-pyrazol-1-yl)-2-azaspiro[3.3]heptan-2-yl)prop-2-en-1-one]	6
C=CC(=O)N1CC2(CC(n3nc(N4CC[C@@H](CN5CC6CC(C5)N6C(C)=O)CC4(C)C)c(-c4c(Cl)c(Cl)cc5[nH]ncc45)c3C)C2)C1 (single isomer, unassigned) [Example 301a]	1900
C=CC(=O)N1CC2(CC(n3nc(N4CCN(C5CCOCC5)C[C@]4(C)COC)c(-c4c(Cl)c(Cl)cc5[nH]ncc45)c3C)C2)C1 (single isomer, unassigned) [Example 150b]	< 5

The remaining lines, values ahead:

IC50 [nM]	SMILES
49700	C=CC(=O)N1CC2(CC(n3nc(N4CCN(C(C)=O)CC4)c(-c4c(Cl)ccc5[nH]ncc45)c3C)C2)C1C (single isomer, unassigned) [Example 197b, 1-(6-(3-(4-acetylpiperazin-1-yl)-4-(5-chloro-1H-indazol-4-yl)-5-methyl-1H-pyrazol-1-yl)-1-methyl-2-azaspiro[3.3]heptan-2-yl)prop-2-en-1-one]
9	C=CC(=O)N1CC2(CC(n3nc(N4CCC(CN5CCN(C)C(=O)C5)CC4(C)C)c(-c4c(Cl)c(Cl)cc5[nH]ncc45)c3C)C2)C1 (single isomer, unassigned) [Example 239b, 4-((1-(1-(2-acryloyl-2-azaspiro[3.3]heptan-6-yl)-4-(5,6-dichloro-1H-indazol-4-yl)-5-methyl-1H-pyrazol-3-yl)-2,2-dimethylpiperidin-4-yl)methyl)-1-methylpiperazin-2-one]
> 5000	C=CC(=O)N1CC2(CC(n3nc(N4CC[C@@H](CN5CC6(C5)CS(=O)(=O)C6)CC4(C)C)c(-c4c(Cl)c(Cl)cc5[nH]ncc45)c3C)C2)C1 (single isomer, unassigned) [Example 248a]
4700	C=CC(=O)N1CC2(CC(n3nc(N4CC[C@@H](CN5C[C@@H]6CS(=O)(=O)C[C@@H]6C5)CC4(C)C)c(-c4c(Cl)c(Cl)cc5[nH]ncc45)c3C)C2)C1 (single isomer, unassigned) [Example 294a]
